# From US4565814A, “Pyridazine derivatives having a psychotropic action and compositions” (priority 1983, dated 1986)
# Read-outs that look alike come from different tables or passages of the source.
# How the values were obtained:
# [1] = system: CD1 (Charles River) female mice; test: Despair behaviour (Porsolt forced-swim immobility), intraperitoneal; format: in vivo, mouse; conditions: Table 8, 1 hour before test, ++ significant (Student test)
# Experimental: The principle of this test is as follows: when a mouse is placed in a narrow vessel filled with water, it struggles and then, after 2 to 4 minutes, it becomes immobile and floats on its abdomen, with its back hunched and its back paws tucked under the body, and it only makes the few movements necessary to keep its head above the water. This is the so-called despair reaction. Certain psychotropic drugs, in particular antidepressants, lengthen the time for which the mouse struggles. The following protocol was selected: The products to be studied were administered intraperitoneally 1 hour before the test. For the test, the animals are placed in a narrow vessel (10×10×10 cm) filled with water to a height of 6 cm, the temperature being 24° C. plus or minus 2° C. The animals are left in the water for 6 minutes and the time for which the animal remains immobile between the 2nd and 6th minutes is measured. The activity of the substance is the greater, the shorter this time. Each substance was studied on a batch of 10 mice. The results are the average of at least two experiments.
# [2] = system: reserpine-induced ptosis in CD1 (Charles River) female mice; test: Antagonism of reserpine-induced ptosis, intraperitoneal; format: in vivo; conditions: Mus musculus, ip, i.p., reserpine 2 mg/kg i.v., read 1 hour after reserpine
# Experimental: ANTAGONISM OF RESERPINE-INDUCED PTOSIS
# This test, which is described by GOURET (Journal de pharmacologie Paris 1973, 4 (1), 105-128), was carried out on CD1 (Charles River) female mice weighing 20 g plus or minus 1 g. Reserpine causes ptosis 1 hour after its intravenous administration; certain antidepressants oppose this ptosis.
# The following protocol was selected:
# The substances to be studied were administered intraperitoneally. The reserpine is administered intravenously at the same time, at a dose of 2 mg/kg.
# [3] = system: CD1 Charles River female mice with unilateral lesion of the striatum; test: Rotational behaviour after unilateral 6-hydroxydopamine lesion of the striatum, intraperitoneal; format: in vivo, mouse; conditions: for Rotational behaviour, intraperitoneal administration (change of rotations vs control): Table 8, 1 hour after administration; for Rotational behaviour of mice (intraperitoneal administration): Table 9, decrease: minus sign printed at end of the dose line, * p < 0.01, Student test
# Experimental: CD1 Charles River female mice weighing from 20 to 24 g first undergo unilateral lesion of the striatum by the stereotaxic injection of 6-hydroxydopamine at a dose of 8 μg per animal. One week after this operation, the product is administered intraperitoneally to groups of 7 mice. The number of rotations is evaluated over 2 minutes, 1 hour after the administration of the product. Rotations on the same side as the lesion are counted as positive and those on the opposite side are counted as negative.
# [4] = system: mice; test: in vivo; format: in vivo; conditions: i.p., mortality noted for 24 hours
# Experimental: (§1) The products to be studied were administered intraperitoneally in increasing doses to batches of 10 mice.
# (§2) The 50% lethal dose, that is to say the dose causing the […] of 50% of the animals studied, is determined from the results obtained for each of the products studied.
# [5] = in vivo; format: in vivo; conditions: mouse, in vivo, ip; Table 9; i.p.; mortality noted for 24 hours; read-out: Toxicity, intraperitoneal administration, LD50
# Experimental: as §1, §2
# [6] = Table 8, read-out: Reserpine-induced ptosis, intraperitoneal administration, ED50
# [7] = Table 9, read-out: Test for the antagonism of reserpine-induced ptosis, intraperitoneal administration, ED50
# [8] = 2 mg/kg i.p., ++ significant (Student test)
Compound,"Despair behaviour, intraperitoneal administration (change of immobility time) ([1]; 5 mg/kg i.p.) [%]","ED50 [2, 6] [mg/kg]","ED50 [2, 7] [mg/kg]","Rotational behaviour, intraperitoneal administration (change of rotations vs control) ([3]; 0.125 mg/kg i.p., ++ significant (Student test)) [%]","Rotational behaviour, intraperitoneal administration (change of rotations vs control) [3, 8] [%]",Rotational behaviour of mice (intraperitoneal administration) ([3]; 2 mg/kg i.p.) [%],"Toxicity, intraperitoneal administration, LD50 ([4]; Table 8) [mg/kg]","Toxicity, intraperitoneal administration, LD50 ([4]; Table 9) [mg/kg]",Rotational behaviour of mice (intraperitoneal administration) ([3]; 0.5 mg/kg i.p.) [%],LD50 at 24 h [5] [mg/kg],"Rotational behaviour, intraperitoneal administration (change of rotations vs control) ([3]; 0.1 mg/kg i.p., ++ significant (Student test)) [%]","Despair behaviour, intraperitoneal administration (change of immobility time) ([1]; 10 mg/kg i.p.) [%]","Rotational behaviour, intraperitoneal administration (change of rotations vs control) ([3]; 3 mg/kg i.p., n.s.: not significant) [%]"
Cc1cc(-c2ccccc2)nnc1NCCN1CCOCC1 [Minaprine],-31,5,5,-53,-82,-82,63,63,–,–,–,–,–
N#Cc1cc(-c2ccsc2)nnc1NCCN1CCOCC1 [SR 95 274 A],–,–,2.6,–,–,-82,–,–,-60,> 300,–,–,–
"Cl.Cl.N#Cc1cc(-c2ccccc2)nnc1NCCN1CCOCC1 [SR 95191, 3-(2-Morpholinoethylamino)-4-cyano-6-phenylpyridazine dihydrochloride]",-26,3.9,–,–,-107,–,–,–,–,–,-60,–,–
CN(C)CCCN1c2ccccc2CCc2ccccc21 [iminaprine],–,2.4,–,–,–,–,–,–,–,–,–,-38,-6
